biological target: T1, ICE (Homo sapiens, UniProt P29466); experiment: Enzyme assay with UV-visible substrate (visible ICE assay, Succinyl-Tyr-Val-Ala-Asp-pNitroanilide); assay type: biochemical; conditions: Table 5
T1 sequence (P29466 120-297 limits assumed): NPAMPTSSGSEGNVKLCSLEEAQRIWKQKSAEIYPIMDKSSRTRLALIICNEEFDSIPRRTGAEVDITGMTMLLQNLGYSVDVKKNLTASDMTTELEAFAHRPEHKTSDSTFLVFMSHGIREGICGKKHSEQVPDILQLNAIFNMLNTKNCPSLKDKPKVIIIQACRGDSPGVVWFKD
T1 sequence (P29466 317-404 limits assumed): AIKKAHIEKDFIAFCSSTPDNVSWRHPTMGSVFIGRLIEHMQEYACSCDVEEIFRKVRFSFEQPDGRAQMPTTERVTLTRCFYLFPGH
Method: 1. Enzyme Assay with Uv-Visible Substrate
This assay is run using an Succinyl-Tyr-Val-Ala-Asp-pNitroanilide substrate. Synthesis of analogous substrates is described by L. A. Reiter (Int. J. Peptide Protein Res. 12, 87-96 (1994)). The assay mixture contains:
The visible ICE assay is run in a 96-well microtiter plate. Buffer, ICE and DMSO (if inhibitor is present) are added to the wells in the order listed. The components are left to incubate at room temperature for 15 minutes starting at the time that all components are present in all wells. The microtiter plate reader is set to incubate at 37° C. After the 15 minute incubation, substrate is added directly to the wells and the reaction is monitored by following the release of the chromophore (pNA) at 405-603 nm at 37° C. for 20 minutes. A linear fit of the data is performed and the rate is calculated in mOD/min. DMSO is only present during experiments involving inhibitors, buffer is used to make up the volume to 100 μl in the other experiments.
For determination of enzyme inhibition constants (Ki) or the mode of inhibition (competitive, uncompetitive or noncompetitive), the rate data determined in the enzyme assays at varying inhibitor concentrations are computer-fit to standard enzyme kinetic equations (see I. H. Segel, Enzyme Kinetics, Wiley-Interscience, 1975).

First: CC(=O)N[C@H]1CCC(=O)N2CCC[C@@H](C(=O)N[C@H](C=O)CC(=O)O)N2C1=O [Compound 214c, [3S(1S,9S)]3-(9-Acetylamino-6,10-dioxo-1,2,3,4,7,8,9,10-octahydro-6H-pyridazino-[1,2-a][1,2]diazepine-1-carboxamido)-4-oxobutanoic acid]
Second: O=C[C@@H](CCC(=O)O)NC(=O)[C@@H]1CCCN2C(=O)CC[C@H](NC(=O)c3ccccc3)C(=O)N12 [Compound 238e, [4R,(1S,9S)]-4-[9-(Benzoylamino)-6,10-dioxo-1,2,3,4,7,8,9,10-octahydro-6H-pyridazino-[1,2-a][1,2]diazepine-1-carboxamido]-5-oxopentanoic acid]
The Ki of the first is 2.4-fold higher: 1.2 µM for the first, 0.5 µM for the second. The second binds more tightly here.

Work on `CS(=O)(=O)N[C@H]1CCC(=O)N2CCC[C@@H](C(=O)N[C@@H](CC(=O)O)C(=O)c3ncc(-c4c(Cl)cccc4Cl)o3)N2C1=O` [Compound 220b, [3S(1S,9S)]-4-[5-(2,6-Dichlorophenyl)oxazol-2-yl]-3-(6,10-dioxo-9-methylsulphonylamino-1,2,3,4,7,8,9,10-octahydro-6H-pyridazino[1,2-a][1,2]diazepine-1-carboxamido)-4-oxobutanoic acid] yielded a Ki of 0.6 µM.

same assay, conditions: Table 17

Going from `CC(=O)N1C[C@H](NC(=O)C(=O)c2ccco2)C(=O)N(CC(=O)N[C@H](C=O)CC(=O)O)c2ccccc21` [Compound 711] to `COc1ccc(C(=O)C(=O)NN2CCC(=O)N3CCC[C@@H](C(=O)N[C@H](C=O)CC(=O)O)N3C2=O)cc1` [Compound 1110], the Ki falls from 0.175 µM to 0.045 µM (3.9-fold).

`O=C[C@H](CC(=O)O)NC(=O)[C@@H]1CCCN2C(=O)CCN(NC(=O)C(=O)c3cccs3)C(=O)N12` [Compound 1107] and `O=C[C@H](CC(=O)O)NC(=O)[C@@H]1CCCN2C(=O)CCN(NC(=O)C(=O)Nc3ccc(Cl)cc3)C(=O)N12` [Compound 1120] are within 1.5-fold of each other in Ki: 0.065 µM for the first, 0.095 µM for the second.

Compared with `O=C[C@H](CC(=O)O)NC(=O)[C@@H]1CCCN2C(=O)CCN(NC(=O)C(=O)c3ccc4c(c3)OCO4)C(=O)N12` [Compound 1109], `O=C[C@H](CC(=O)O)NC(=O)[C@@H]1CCCN2C(=O)CCN(NC(=O)Cc3ccc4c(c3)OCO4)C(=O)N12` [Compound 1121] is 2.1-fold higher in Ki: 0.08 µM for the first, 0.17 µM for the second. The first binds more tightly here.

Going from `O=C[C@H](CC(=O)O)NC(=O)[C@@H]1CCCN2C(=O)CCN(NC(=O)CCc3ccc(Cl)cc3)C(=O)N12` [Compound 1113] to `O=C[C@H](CC(=O)O)NC(=O)[C@@H]1CCCN2C(=O)CCN(NC(=O)CCc3ccc4c(c3)OCO4)C(=O)N12` [Compound 1114], the Ki falls from 0.29 µM to 0.125 µM (2.3-fold). The second binds more tightly here.

`O=C[C@H](CC(=O)O)NC(=O)[C@@H]1CCCN2C(=O)CCN(NC(=O)/C=C/c3ccc(Cl)c(Cl)c3)C(=O)N12` [Compound 1115] and `O=C[C@H](CC(=O)O)NC(=O)[C@@H]1CCCN2C(=O)CCN(NC(=O)/C=C/c3ccc4c(c3)OCO4)C(=O)N12` [Compound 1116] are within 1.5-fold of each other in Ki: 0.25 µM for the first, 0.215 µM for the second.

`O=C[C@H](CC(=O)O)NC(=O)[C@@H]1CCCN2C(=O)CCN(NC(=O)CC3CCCCC3)C(=O)N12` [Compound 1118] and `O=C[C@H](CC(=O)O)NC(=O)[C@@H]1CCCN2C(=O)CCN(NC(=O)CCC3CCCCC3)C(=O)N12` [Compound 1119] are within 1.5-fold of each other in Ki: 0.38 µM for the first, 0.515 µM for the second.

`Cc1cc(C)c(CC(=O)NN2CCC(=O)N3CCC[C@@H](C(=O)N[C@H](C=O)CC(=O)O)N3C2=O)c(C)c1` [Compound 1122] and `COc1cc(C(=O)C(=O)NN2CCC(=O)N3CCC[C@@H](C(=O)N[C@H](C=O)CC(=O)O)N3C2=O)cc(OC)c1OC` [Compound 1124] are within 1.5-fold of each other in Ki: 0.4 µM for the first, 0.27 µM for the second.

same assay, conditions: Table 27

First: COC(=O)N1C[C@H](NC(=O)c2ccc(O)c(Cl)c2)C(=O)N(CC(=O)N[C@H](C=O)CC(=O)O)c2ccccc21 [Compound 720]
Second: CC(=O)O[C@@H](C)C(=O)N1C[C@H](NC(=O)c2cc(C)c(O)c(C)c2)C(=O)N(CC(=O)N[C@H](C=O)CC(=O)O)c2ccccc21 [Compound 726]
The Ki of the first is 110-fold lower: 0.0027 µM for the first, 0.3 µM for the second. The first binds more tightly here.

Compared with `CC(=O)OC(C)(C)C(=O)N1C[C@H](NC(=O)c2cc(C)c(O)c(C)c2)C(=O)N(CC(=O)N[C@H](C=O)CC(=O)O)c2ccccc21` [Compound 728], `CC(=O)N[C@@H](CCC(=O)O)C(=O)N[C@H]1CN(C(=O)CO)c2ccccc2N(CC(=O)N[C@H](C=O)CC(=O)O)C1=O` [Compound 731] is 2-fold lower in Ki: 0.3 µM for the first, 0.15 µM for the second.

test system: IL-1β, human peripheral blood mononuclear cells (PBMC); experiment: PBMC cell assay: IL-1β assay with human PBMC or enriched adherent mononuclear cells, LPS-stimulated; assay type: cell-based; conditions: Homo sapiens, PBMC, * = values obtained upon reassay
Text: IL-1β Assay with a Mixed Population of Human Peripheral Blood Mononuclear Cells (PBMC) or Enriched Adherent Mononuclear Cells
Processing of pre-IL-1β by ICE can be measured in cell culture using a variety of cell sources. Human PBMC obtained from healthy donors provides a mixed population of lymphocyte subtypes and mononuclear cells that produce a spectrum of interleukins and cytokines in response to many classes of physiological stimulators. Adherent mononuclear cells from PBMC provides an enriched source of normal monocytes for selective studies of cytokine production by activated cells.
An initial dilution series of test compound in DMSO or ethanol is prepared, with a subsequent dilution into RPMI-10% FBS media (containing 2 mM L-glutamine, 10 mM HEPES, 50 U and 50 ug/ml pen/strep) respectively to yield drugs at 4× the final test concentration containing 0.4% DMSO or 0.4% ethanol. The final concentration of DMSO is 0.1% for all drug dilutions. A concentration titration which brackets the apparent Ki for a test compound determined in an ICE inhibition assay is generally used for the primary compound screen.
Generally 5-6 compound dilutions are tested and the cellular component of the assay is performed in duplicate, with duplicate ELISA determinations on each cell culture supernatant.
PBMC Isolation and IL-1 Assay:
Buffy coat cells isolated from one pint human blood (yielding 40-45 ml final volume plasma plus cells) are diluted with media to 80 ml and LeukoPREP separation tubes (Becton Dickinson) are each overlaid with 10 ml of cell suspension. After 15 min centrifugation at 1500-1800×g, the plasma/media layer is aspirated and then the mononuclear cell layer is collected with a Pasteur pipette and transferred to a 15 ml conical centrifuge tube (Corning). Media is added to bring the volume to 15 ml, gently mix the cells by inversion and centrifuge at 300×g for 15 min. Resuspend the PBMC pellet in a small volume of media, count cells and adjust to 6×10^6 cells/ml.
For the cellular assay, 1.0 ml of the cell suspension is added to each well of a 24-well flat bottom tissue culture plate (Corning), 0.5 ml test compound dilution and 0.5 ml LPS solution (Sigma #L-3012; 20 ng/ml solution prepared in complete RPMI media; final LPS concentration 5 ng/ml). The 0.5 ml additions of test compound and LPS are usually sufficient to mix the contents of the wells. Three control mixtures are run per experiment, with either LPS alone, solvent vehicle control, and/or additional media to adjust the final culture volume to 2.0 ml. The cell cultures are incubated for 16-18 hr at 37° C. in the presence of 5% CO2.
At the end of the incubation period, cells are harvested and transferred to 15 ml conical centrifuge tubes. After centrifugation for 10 min at 200×g, supernatants are harvested and transferred to 1.5 ml Eppendorf tubes. It may be noted that the cell pellet may be utilized for a biochemical evaluation of pre-IL-1β and/or mature IL-1β content in cytosol extracts by western blotting or ELISA with pre-IL-1β specific antisera.
Isolation of Adherent Mononuclear Cells:
PBMC are isolated and prepared as described above. Media (1.0 ml) is first added to wells followed by 0.5 ml of the PBMC suspension. After a one hour incubation, plates are gently shaken and nonadherent cells aspirated from each well. Wells are then gently washed three times with 1.0 ml of media and final resuspended in 1.0 ml media. The enrichment for adherent cells generally yields 2.5−3.0×10^5 cells per well. The addition of test compounds, LPS, cell incubation conditions and processing of supernatants proceeds as described above.
We have used Quantikine kits (R&D Systems) for measurement of mature IL-1β. Assays are performed according to the manufacturer's directions. Mature IL-1β levels of about 1-3 ng/ml in both PBMC and adherent mononuclear cell positive controls are observed. […]

`CC(=O)N[C@H]1CCC(=O)N2CCC[C@@H](C(=O)N[C@H](C=O)CC(=O)O)N2C1=O` [Compound 214c, [3S(1S,9S)]3-(9-Acetylamino-6,10-dioxo-1,2,3,4,7,8,9,10-octahydro-6H-pyridazino-[1,2-a][1,2]diazepine-1-carboxamido)-4-oxobutanoic acid] and `O=C[C@@H](CCC(=O)O)NC(=O)[C@@H]1CCCN2C(=O)CC[C@H](NC(=O)c3ccccc3)C(=O)N12` [Compound 238e, [4R,(1S,9S)]-4-[9-(Benzoylamino)-6,10-dioxo-1,2,3,4,7,8,9,10-octahydro-6H-pyridazino-[1,2-a][1,2]diazepine-1-carboxamido]-5-oxopentanoic acid] are within 1.5-fold of each other in IC50: 5 µM for the first, 4.25 µM for the second.

Work on `CS(=O)(=O)N[C@H]1CCC(=O)N2CCC[C@@H](C(=O)N[C@@H](CC(=O)O)C(=O)c3ncc(-c4c(Cl)cccc4Cl)o3)N2C1=O` [Compound 220b, [3S(1S,9S)]-4-[5-(2,6-Dichlorophenyl)oxazol-2-yl]-3-(6,10-dioxo-9-methylsulphonylamino-1,2,3,4,7,8,9,10-octahydro-6H-pyridazino[1,2-a][1,2]diazepine-1-carboxamido)-4-oxobutanoic acid] yielded an IC50 of 2.12 µM.

same assay, conditions: Table 17

First: CS(=O)(=O)N[C@H]1CCC(=O)N2CCC[C@@H](C(=O)N[C@@H](CC(=O)O)C(=O)CSc3nnnn3-c3ccccc3)N2C1=O [Compound 280b, [3S(1S,9S)]3-(6,10-Dioxo-9-methanesulphonamido-1,2,3,4,7,8,9,10-octahydro-6H-pyridazino[1,2-a][1,2]diazepine-1-carboxamido)-4-oxo-5(1-phenyl-1H-tetrazole-5-thio)pentanoic acid]
Second: CS(=O)(=O)N[C@H]1CCC(=O)N2CCC[C@@H](C(=O)N[C@@H](CC(=O)O)C(=O)COc3nc4ccccn4c(=O)c3Cl)N2C1=O [Compound 505f, [3S(1S,9S)]5-(3-Chloro-2-oxy-4H-pyrido[1,2-a]pyrimidin-4-one)-3-[6,10-dioxo-9-(methylsulphonyl)amino-1,2,3,4,7,8,9,10-octahydro-6H-pyridazino[1,2-a][1,2]diazepine-1-carboxamido]-4-oxopentanoic acid]
The IC50 of the first is 24-fold higher: 13 µM for the first, 0.55 µM for the second.

Compared with `CS(=O)(=O)N[C@H]1CCC(=O)N2CCC[C@@H](C(=O)N[C@@H](CC(=O)O)C(=O)COC(=O)c3ccccc3Oc3ccccc3)N2C1=O` [Compound 505c, [3S(1S,9S)]3-[6,10-Dioxo-9-(methanesulphonylamino)-1,2,3,4,7,8,9,10-octahydro-6H-pyridazino[1,2-a][1,2]diazepine-1-carboxamido]-4-oxo-5-(2-phenoxybenzoyloxy)pentanoic acid], `CS(=O)(=O)N[C@H]1CCC(=O)N2CCC[C@@H](C(=O)N[C@@H](CC(=O)O)C(=O)COC(=O)c3cccc(Oc4ccccc4)c3)N2C1=O` [Compound 505d, [3S(1S,9S)]3-[6,10-Dioxo-9-(methanesulphonylamino)-1,2,3,4,7,8,9,10-octahydro-6H-pyridazino[1,2-a][1,2]diazepine-1-carboxamido]-4-oxo-5-(3-phenoxybenzoyloxy)pentanoic acid] is higher in IC50: 1.5 µM for the first, over 20 µM for the second.

Source: patent US20120165319A1, “INHIBITORS OF INTERLEUKIN-1 BETA CONVERTING ENZYME” (VERTEX PHARMACEUTICALS INCORPORATED, priority 1995, published 2012)
